From patent US4568765A, “Isoprenylamine derivatives” (priority 1981, dated 1986)
Read-outs that look alike come from different tables or passages of the source.

Assays:
vaccinia virus [1] = format: in vivo; conditions: ICR female mice; 50 mg/kg intraperitoneally 24 hours before i.v. virus inoculation; lesions counted on 8th day; against surfactant solution group
[2] = test system: human interferon; normal diploid cells (fibroblast); experiment: Human interferon inducing activity (in vitro), 3H-uridine-uptake inhibition; format: cell-based; conditions: 25 n molar suspension, radioisotope microassay
Description: Interferon was induced according to the method of Edward A. Havell et al. by treating normal diploid cells (fibroblast) originated from human being with each test compound (in the form of ethanol solution diluted with PBS (-), 25 n molar suspension). Using the radioisotope microassay method of H. Ishitsuka et al., interferon was measured in terms of 3H-uridine-uptakeinhibition rate.

[3] = Toxicity (50% lethal dose, intravenous); format: in vivo; conditions: ddY male mice 20-25 g
Description: Using ddY male mice weighing 20-25 g, 50% lethal dose of each test compound when intravenously administered was obtained, the results of which are shown in Table 6.

tumor cells KN7 -8 = experiment: Anti-tumor activity (survivors on the 30th day); format: in vivo; conditions: survivors/group of 6 Balb/c male mice, 5×10^5 KN7 -8 cells i.p., 30 mg/kg i.p. 24 hours before and on 2nd and 5th day after inoculation
Description: Groups, each consisting of 6 Balb/c male mice weighing about 20 g, were intraperitoneally administered 5×10^5 of tumor cells KN7 -8. Each test compound suspended in a surfactant solution was intraperitoneally administered (each time at a rate of 30 mg/kg) to the mice 24 hours before inoculation of the tumor cells and on the second day and the fifth day after the inoculation, totalling 3 times, and the anti-tumor activity was evaluated in terms of number of survivors on the 30th day after the inoculation.

vaccinia virus [4] = format: cell-based; conditions: vero cells; 50 n molar concentration

CC(C)=CCCC(C)=CCCC(C)=CCCC(C)=CCCC(C)=CCCC(C)=CCCC(C)=CCCC(C)=CCCC(C)=CCNCCNCCNCCN [drawing 18]
Prevention from vaccinia infection (Pock inhibition rate %) (vaccinia virus [1]): 76.1%

CC(C)=CCCC(C)=CCCC(C)=CCCC(C)=CCCC(C)=CCCC(C)=CCCC(C)=CCCC(C)=CCCC(C)=CCCC(C)=CCNCCNCCN [drawing 17]
Prevention from vaccinia infection (Pock inhibition rate %) (vaccinia virus [1]): 51.9%

CC(C)=CCCC(C)=CCCC(C)=CCCC(C)=CCCC(C)=CCCC(C)=CCCC(C)=CCCC(C)=CCCC(C)=CCCC(C)=CCNCCNCCNCCN [drawing 16]
Prevention from vaccinia infection (Pock inhibition rate %) (vaccinia virus [1]): 87.9%

CC(C)=CCCC(C)=CCCC(C)=CCCC(C)=CCCC(C)=CCCC(C)=CCCC(C)=CCCC(C)=CCCC(C)=CCCC(C)=CCNCCNCCN [drawing 24]
Human interferon (in vitro) 3H-uridine-uptake inhibition rate % [2]: 15.1%

CCNCCN(CC)CCN(CC)CCN(CC)CC=C(C)CCCC(C)CCCC(C)CCCC(C)C (stereo not shown)
LD50 ([3]; mouse, in vivo, iv, read-out: LD50): 34 mg/kg

CC(C)=CCCC(C)=CCCC(C)=CCCC(C)=CCCC(C)=CCCC(C)=CCCC(C)=CCCC(C)=CCCC(C)=CCCC(C)=CCNCCNCCNCCN [drawing 19]
Anti-tumor activity (Survivor on the 30th day) (tumor cells KN7 -8): 5/6

CC(C)=CCCC(C)=CCCC(C)=CCCC(C)=CCCC(C)=CCCC(C)=CCCC(C)=CCCC(C)=CCCC(C)=CCCC(C)=CCNCCNCCN [drawing 22]
Anti-tumor activity (Survivor on the 30th day) (tumor cells KN7 -8; 30 mg/kg): 2/6

CC(C)=CCCC(C)=CCCC(C)=CCCC(C)=CCCC(C)=CCCC(C)=CCCC(C)=CCCC(C)=CCCC(C)=CCCC(C)=CCN(CCN(CCN(CCNCc1ccccc1)Cc1ccccc1)Cc1ccccc1)Cc1ccccc1
Human interferon (in vitro) 3H-uridine-uptake inhibition rate % [2]: 23.2%

CC(C)=CCCC(C)=CCCC(C)=CCCC(C)=CCCC(C)=CCCC(C)=CCCC(C)=CCCC(C)=CCCC(C)=CCNCCNCCNCCN [drawing 21]
Anti-tumor activity (Survivor on the 30th day) (tumor cells KN7 -8): 3/6

CC(C)=CCCC(C)=CCCC(C)=CCCC(C)=CCCC(C)=CCCC(C)=CCCC(C)=CCCC(C)=CCCC(C)=CCCC(C)=CCNCCNCCNCCN [drawing 27]
LD50 [3]: 57 mg/kg

CC(C)=CCCC(C)=CCCC(C)=CCCC(C)=CCCC(C)=CCCC(C)=CCCC(C)=CCCC(C)=CCCC(C)=CCCC(C)=CCNCCNCCNCCN [drawing 25]
Anti-vaccinia virus activity (in vitro) (Plaque inhibition rate %) (vaccinia virus [4]): 44.5%

CC(C)=CCCC(C)=CCCC(C)=CCCC(C)=CCCC(C)=CCCC(C)=CCCC(C)=CCCC(C)=CCCC(C)=CCCC(C)=CCNCCNCCN [drawing 20]
Anti-tumor activity (Survivor on the 30th day) (tumor cells KN7 -8; 30 mg/kg): 1/6

CC(C)=CCCC(C)=CCCC(C)=CCCC(C)=CCCC(C)=CCCC(C)=CCCC(C)=CCCC(C)=CCCC(C)=CCCC(C)=CCNCCNCCNCCN [drawing 28]
LD50 [3]: 21 mg/kg
